The record followed here is patent publication US11840517B2, “Lappaconitine derivative with analgesic activity, and preparation and application thereof” (priority 2021, dated 2023).

SMILES strings stand for the structures. Where two headings read alike, the source gives them in different places.

The nature of series [1]: Median lethal dose (LD50) determination. The series is classed as in vivo, Kunming mice. To be noted: both sexes, Kunming, mouse, in vivo, sc; subcutaneous, survival within 24 h, Probit regression. Here is the method: (§1) The sample to be tested was dissolved with 0.1 mol/L HCl according to the amount of the substance ratio of 1:1, and diluted with physiological saline according to the required concentration. 10 mice in each group were randomly selected, half of which are male and half of which were female, and were placed in independent cages. Each mouse was injected subcutaneously with different sample solutions to be tested according to a dose of 0.1 mL/10 g body weight. In the preliminary toxicity experiment, the measured concentration was 100 mg/kg, and then based on the survival rate of the experimental animals in the preliminary experiment, the sample to be tested was set to at least 5 groups with different concentration dose according to the proportional series. The survival rate of mice within 24 h was recorded. The obtained dose-survival rate data was input into the SPSS software (version 17.2), and the LD50 of the sample was calculated according to the Probit regression method.

Series [2] deals with Kunming mice. Put plainly: Analgesic activity by acetic acid-induced writhing method. The series is classed as in vivo. To be noted: for inhibition in vivo at 10 mg/kg: Mus musculus, sc, read-out: Analgesia rate ± SEM (%); for analgesic activity (in words, Table 1): comment on Table 1. How it is done:
The experimental animals were Kunming mice (male:female=1:1), weighed 22±2 g, which were provided by Chengdu dossy experimental animals Co., ltd., China. The mice were kept in the animal room of the School of Life Science and Engineering, Southwest Jiaotong University, where the animal room was set at a temperature of 23±2° C., a humidity of 55±5% and a photoperiod of 16:8 h (L:D). Before the experiment, the mice were freely fed for 2-3 days with water and feed to adapt to the new environment. Then, the mice were treated by water fasting for 12 h. 10 animals were allocated to each group to ensure that there are at least 6 sets of valid data in each group. The animal experiments were carried out in strict accordance with the national regulations on the management of experimental animals.
The compounds prepared in the examples provided herein and the positive control lappaconitine were all dissolved with 0.1 mol/L HCl according to the amount of the substance ratio of 1:1, and then diluted with physiological saline to a concentration to be determined. The samples to be tested were the compounds prepared the examples provided herein; the positive control was lappaconitine; and the blank control was physiological saline containing 0.1 mol/L HCl.
The animals in the control groups were subjected to the same treatment as those in the experimental group except that the samples to be test were replaced with physiological saline.
(§2) 10 mice were randomly selected, male:female=1:1, were placed in independent cages. Each mouse was injected subcutaneously with the sample solution mentioned above at a dose of 0.1 mL/10 g body weight. After 15 min, a 0.7% acetic acid solution was intraperitoneally injected. The number of writhing reactions in each mouse within 15 minutes was recorded. The group that the mice were injected with physiological saline subcutaneously was the blank group; the group that the mice were injected with the sample to be tested was the experimental group; and the group that the mice were injected with lappaconitine was the positive group. The analgesic activity was represented by a percentage of the reduced number of writhing compared to the blank group (writhing inhibition rate), which were specifically as follows: writhing inhibition rate (analgesic activity)=(average number of writhing times in the blank group-average number of writhing times in the experimental group)/average number of writhing times in the blank group×100%.
A general note: Writhing tests count abdominal constrictions after an irritant is injected.

For series [3], the system named is Kunming mice. Put plainly: Median effective dose (ED50) determination, acetic acid-induced writhing. The series is classed as in vivo. The conditions noted are these: for ED50: subcutaneous, writhing inhibition, Probit regression; for analgesic activity / ED50 compared with lappaconitine (in words): comment on Table 2. Here is the method:
as §2
The sample to be tested was dissolved with 0.1 mol/L HCl according to the amount of the substance ratio of 1:1, and diluted with physiological saline according to the proportional series to obtain at least 5 groups with different dose concentrations. The writhing inhibition rate of each dose group was tested according to the acetic acid-induced writhing method mentioned above. The obtained does-writhing inhibition data was entered into the statistical product and service solutions (SPSS) software (version 17.2), and the ED50 of the sample to be tested was calculated through the Probit regression method.

Series [4] relates to Kunming mice. Put plainly: Median lethal dose (LD50) determination. The format is in vivo. Here is the method:
as §1

Setting [5] is: Mus musculus, sc, read-out: ED50.
The mark [6] stands for this setting: Dosing concentration 10 mg/kg, subcutaneous, 15 min before i.p. 0.7% acetic acid, writhing inhibition vs blank group.

The compound `CCN1C[C@]2(OC(=O)c3ccccc3NS(=O)(=O)c3ccccc3)CC[C@H](OC)C34C2CC([C@@H]13)[C@@]1(O)C[C@H](OC)[C@H]2CC4[C@]1(O)[C@H]2OC` (stereo partly shown) [Compound 1] came in with a 50% lethal dose (LD50) in series [1] of more than 600 mg/kg. Moreover, in series [2], the inhibition in vivo at 10 mg/kg turned out to be 84.3 ± 3.05% and the “analgesic activity (in words, Table 1)” value is given as “significant activity”. The 50% effective dose (ED50) in series [3] (setting [5]) is 6.1 mg/kg. Further, the “analgesic activity / ED50 compared with lappaconitine (in words)” value in series [3] was “same order of magnitude as that of lappaconitine”.
With `CCN1C[C@]2(OC(=O)c3ccccc3NS(=O)(=O)c3ccccc3OC)CC[C@H](OC)C34C2CC([C@@H]13)[C@@]1(O)C[C@H](OC)[C@H]2CC4[C@]1(O)[C@H]2OC` (stereo partly shown) [Compound 2], the LD50 in series [1] was 300 mg/kg. Also, in series [2], the inhibition in vivo at 10 mg/kg was 71.2 ± 3.8% and the “analgesic activity (in words, Table 1)” value is listed as “significant activity”. The 50% effective dose (ED50) in series [3] (setting [5]) stood at 5.5 mg/kg. The “analgesic activity / ED50 compared with lappaconitine (in words)” value in series [3] is “same order of magnitude as that of lappaconitine”.
In series [1], `CCN1C[C@]2(OC(=O)c3ccccc3NS(=O)(=O)c3ccccn3)CC[C@H](OC)C34C2CC([C@@H]13)[C@@]1(O)C[C@H](OC)[C@H]2CC4[C@]1(O)[C@H]2OC` (stereo partly shown) [Compound 3] registered an LD50 of more than 400 mg/kg. Further, in series [2], the inhibition in vivo at 10 mg/kg turned out to be 71.2 ± 2.72% and the “analgesic activity (in words, Table 1)” value is given as “significant activity”. In addition, the ED50 in series [3] (setting [5]) came to 4.7 mg/kg. Further, in series [3], the “analgesic activity / ED50 compared with lappaconitine (in words)” value is reported as “same order of magnitude as that of lappaconitine”.
Compound `CCN1C[C@]2(OC(=O)c3ccccc3NC(=O)OC)CC[C@H](OC)C34C2CC([C@@H]13)[C@@]1(O)C[C@H](OC)[C@H]2CC4[C@]1(O)[C@H]2OC` (stereo partly shown) [Compound 4] registered an LD50 in series [1] of 10 mg/kg. The “toxicity compared with lappaconitine (in words)” value in series [4] (comment on Table 2) is reported as “did not increase significantly”. Besides, in series [2], the inhibition in vivo at 10 mg/kg was found to be 71.1 ± 5.97% and the “analgesic activity (in words, Table 1)” value is given as “significant activity”. Also, the ED50 in series [3] (setting [5]) was determined as 1.2 mg/kg. For the same compound, in series [3], the “analgesic activity / ED50 compared with lappaconitine (in words)” value is “doubled compared with lappaconitine”.
The compound `CCN1C[C@]2(OC(=O)c3ccccc3NC(=O)c3ccc(N(C)C)cc3)CC[C@H](OC)C34C2CC([C@@H]13)[C@@]1(O)C[C@H](OC)[C@H]2CC4[C@]1(O)[C@H]2OC` (stereo partly shown) [Compound 5] showed an LD50 in series [1] of 300 mg/kg. In series [2], the inhibition in vivo at 10 mg/kg came to 62.1 ± 5.02% and the “analgesic activity (in words, Table 1)” value is reported as “significant activity”. In series [3] (setting [5]), the ED50 is 6.1 mg/kg. For the same compound, the “analgesic activity / ED50 compared with lappaconitine (in words)” value in series [3] is reported as “same order of magnitude as that of lappaconitine”.
Taken in the same sequence, the figures for `CCN(CC)c1ccc(C(=O)Nc2ccccc2C(=O)O[C@@]23CC[C@H](OC)C45C2CC([C@H]4N(CC)C3)[C@@]2(O)C[C@H](OC)[C@H]3CC5[C@]2(O)[C@H]3OC)cc1` (stereo partly shown) [Compound 30] were 276 mg/kg, 63.9 ± 5.09%, “significant activity”, 7.5 mg/kg and “same order of magnitude as that of lappaconitine”.
As for `CCOc1ccc(C(=O)Nc2ccccc2C(=O)O[C@@]23CC[C@H](OC)C45C2CC([C@H]4N(CC)C3)[C@@]2(O)C[C@H](OC)[C@H]3CC5[C@]2(O)[C@H]3OC)cc1` (stereo partly shown) [Compound 31], the LD50 in series [1] is 315 mg/kg. In addition, in series [2], the inhibition in vivo at 10 mg/kg worked out at 62.8 ± 5.41% and the “analgesic activity (in words, Table 1)” value is “significant activity”. Besides, the ED50 in series [3] (setting [5]) is 6.6 mg/kg. Also, in series [3], the “analgesic activity / ED50 compared with lappaconitine (in words)” value is listed as “same order of magnitude as that of lappaconitine”.
For `CCN1C[C@]2(OC(=O)c3ccccc3NC(=O)c3ccc(OC)cc3)CC[C@H](OC)C34C2CC([C@@H]13)[C@@]1(O)C[C@H](OC)[C@H]2CC4[C@]1(O)[C@H]2OC` (stereo partly shown) [Compound 32], in series [1], the LD50 worked out at 296 mg/kg. Also, in series [2], the inhibition in vivo at 10 mg/kg stood at 62.8 ± 5.77% and the “analgesic activity (in words, Table 1)” value is on record as “significant activity”. Further, in series [3] (setting [5]), the ED50 worked out at 4.4 mg/kg. For the same compound, in series [3], the “analgesic activity / ED50 compared with lappaconitine (in words)” value is listed as “same order of magnitude as that of lappaconitine”.
As for `CCN1C[C@]2(OC(=O)c3ccccc3NC(=O)c3ccc(I)cc3)CC[C@H](OC)C3C2C[C@@H]([C@@H]1C)[C@@]1(O)CC(OC)[C@H]2CC3[C@]1(O)[C@H]2OC` (stereo partly shown) [Compound 43], the inhibition in vivo at 10 mg/kg in series [2] (setting [6]) came to 31.1 ± 8.56%.
Take `CCCCc1ccc(C(=O)Nc2ccccc2C(=O)O[C@@]23CC[C@H](OC)C4C2C[C@@H]([C@H](C)N(CC)C3)[C@@]2(O)CC(OC)[C@H]3CC4[C@]2(O)[C@H]3OC)cc1` (stereo partly shown) [Compound 44]: in series [2] (setting [6]), the inhibition in vivo at 10 mg/kg came out at 28.2 ± 7.88%.
For the compound `CCN1C[C@]2(OC(=O)c3ccccc3NC(=O)c3ccc(Cl)s3)CC[C@H](OC)C3C2C[C@@H]([C@@H]1C)[C@@]1(O)CC(OC)[C@H]2CC3[C@]1(O)[C@H]2OC` (stereo partly shown) [Compound 45], the inhibition in vivo at 10 mg/kg in series [2] (setting [6]) turned out to be 27.8 ± 5.83%.
Consider `CCc1ccc(C(=O)Nc2ccccc2C(=O)O[C@@]23CC[C@H](OC)C4C2C[C@@H]([C@H](C)N(CC)C3)[C@@]2(O)CC(OC)[C@H]3CC4[C@]2(O)[C@H]3OC)cc1` (stereo partly shown) [Compound 46], for which, in series [2] (setting [6]), the inhibition in vivo at 10 mg/kg came out at 26.7 ± 7.95%.
Regarding `CCN1C[C@]2(OC(=O)c3ccccc3NC(=O)CC(C)(C)C)CC[C@H](OC)C3C2C[C@@H]([C@@H]1C)[C@@]1(O)CC(OC)[C@H]2CC3[C@]1(O)[C@H]2OC` (stereo partly shown) [Compound 47], in series [2] (setting [6]), the inhibition in vivo at 10 mg/kg was 24.9 ± 9.7%.
On the same count and under the same terms, under `CCN1C[C@]2(OC(=O)c3ccccc3NC(=O)C3CCCO3)CC[C@H](OC)C3C2C[C@@H]([C@@H]1C)[C@@]1(O)CC(OC)[C@H]2CC3[C@]1(O)[C@H]2OC` (stereo partly shown) [Compound 48] stands 21.8 ± 12.6%.
Still for that read-out and setting: under `CCN1C[C@]2(OC(=O)c3ccccc3NC(=O)c3ccc(C(C)C)cc3)CC[C@H](OC)C3C2C[C@@H]([C@@H]1C)[C@@]1(O)CC(OC)[C@H]2CC3[C@]1(O)[C@H]2OC` (stereo partly shown) [Compound 49] stands 21 ± 6.58%; under `CCN1C[C@]2(OC(=O)c3ccccc3NC(=O)C3CCOCC3)CC[C@H](OC)C3C2C[C@@H]([C@@H]1C)[C@@]1(O)CC(OC)[C@H]2CC3[C@]1(O)[C@H]2OC` (stereo partly shown) [Compound 50], 16.4 ± 8.07%.
`CCN1C[C@]2(OC(=O)c3ccccc3NC(=O)c3ccc(OC(C)C)cc3)CC[C@H](OC)[C@]34C1[C@H](CC23)[C@@]1(O)C[C@H](OC)[C@H]2CC4[C@]1(O)[C@H]2OC` (stereo partly shown) [Compound 59] had an LD50 in series [1] of 196 mg/kg. In series [2], the inhibition in vivo at 10 mg/kg was determined as 61.1 ± 5.52% and the “analgesic activity (in words, Table 1)” value is reported as “significant activity”. In addition, the ED50 in series [3] (setting [5]) stood at 8.1 mg/kg. Besides, the “analgesic activity / ED50 compared with lappaconitine (in words)” value in series [3] is “same order of magnitude as that of lappaconitine”.
`CCN1C[C@]2(OC(=O)c3ccccc3NC(C)=O)CC[C@H](OC)[C@@]34[C@@H]2C[C@@H]([C@@H]13)[C@@]1(O)C[C@H](OC)[C@H]2C[C@@H]4[C@]1(O)[C@H]2OC` [Lappaconitine] displayed an LD50 in series [4] (subcutaneous, survival within 24 h, Probit regression) of 11.7 mg/kg. Besides, in series [2] (Dosing concentration 3.5 mg/kg, subcutaneous, 15 min before i.p. 0.7% acetic acid, writhing inhibition vs blank group), the “Analgesia rate ± SEM (%)” value is reported as 56.57 ± 6.57 %. Moreover, the “experimental animal death from poisoning” value in series [2] (dosing concentration of 10 mg/kg) is recorded as “more than half of the experimental animal death from poisoning”. The compound further had an ED50 in series [3] of 3.5 mg/kg.

One may read the LD50 as the dose at which mortality reaches 50%. High values mean lower toxicity, low ones greater toxicity. Usually ED50 stands for the dose that gives a 50% effect, or the effect in half of the subjects.
